Entries after “also recorded” stand apart in the source; their conditions may differ. Blank lines part the entries; values can stand above or below the compound they belong to.
Key:
[1] = target: T1, FabG (Pseudomonas aeruginosa, UniProt O54438); test: Back Assay: FabG-catalyzed oxidation of 3-OH decanoyl-NAC, NADPH fluorescence; format: biochemical
T1 sequence (O54438 1-247): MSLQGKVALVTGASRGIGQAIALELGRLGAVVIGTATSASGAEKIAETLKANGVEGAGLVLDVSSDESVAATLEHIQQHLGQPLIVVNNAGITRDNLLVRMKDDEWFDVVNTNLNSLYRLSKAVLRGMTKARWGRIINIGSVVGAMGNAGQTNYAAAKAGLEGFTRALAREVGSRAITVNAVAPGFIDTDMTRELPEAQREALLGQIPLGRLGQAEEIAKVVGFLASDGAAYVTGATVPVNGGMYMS

[2] = target: T1, FabG; test: Forward Assay: FabG-catalyzed reduction of AcAcCoA, NADPH consumption at 340 nm
[3] = tested on: Staphylococcus aureus RN4220; test: Phenotypic growth assay S. aureus; format: cell-based
[4] = Lineweaver–Burk plot, 0-200 nM FG01

Compound: 3-hydroxydecanoyl-N-acetylcysteamine [3-OH decanoyl-NAC]
Km ([1]; 3-OH decanoyl-NAC, not determinable, response linear at least to 0.3 mM): > 300 µM

Compound: Cn1ncc2c(NCCO)nc(Nc3ccc(F)c(F)c3)nc21 [FG39, 2-[[6-(3,4-difluoroanilino)-1-methylpyrazolo[3,4-d]pyrimidin-4-yl]amino]ethanol]
inhibition of cell growth ([3]; S. aureus, 100 μM): 35%

Compound: COc1ccccc1Nc1cccc2nccnc12 [FG48, N-(2-methoxyphenyl)quinoxalin-5-amine]
effect on growth of S. aureus ([3]; concentration/effect curve): completely inhibited the growth

Now from value to compound, other results behind:

mode of inhibition with respect to AcAcCoA [2, 4]: mixed inhibition pattern
Compound: c1ccc(-c2nc(-n3cnnc3)c3ccccc3n2)cc1 [FG01, 2-phenyl-4-(1,2,4-triazol-4-yl)quinazoline]
mode of inhibition with respect to NADPH [2, 4]: noncompetitive mode of inhibition; also recorded: noncompetitive inhibition pattern

Km ([2]; NADPH, in the presence of 4 mM AcAcCoA): 290 ± 30 µM
Compound: NC(=O)C1=CN([C@@H]2O[C@H](COP(=O)(O)OP(=O)(O)OC[C@H]3O[C@@H](n4cnc5c(N)ncnc54)[C@H](OP(=O)(O)O)[C@@H]3O)[C@@H](O)[C@H]2O)C=CC1 [NADPH, reference compound]

Km ([1]; NADP+, in the presence of 0.3 mM 3-OH decanoyl-NAC): 290 µM
Compound: NC(=O)c1ccc[n+]([C@@H]2O[C@H](COP(=O)([O-])OP(=O)(O)OC[C@H]3O[C@@H](n4cnc5c(N)ncnc54)[C@H](OP(=O)(O)O)[C@@H]3O)[C@@H](O)[C@H]2O)c1 [NADP^+]

Reference: PMC3833349 (ACS Chemical Biology, 2013)
